Source: publication PMC9151520 (Archives of Toxicology, 2022)
Values joined by “and” are separate entries in the source; they are usually repeats but may differ in a detail not shown here. Equal values may be shown once. Read-outs that look alike come from different tables or passages of the source.

Assays:
[1] = system: p53 signaling (p53RE-bla HCT-116 cells); assay: cells; type: cell-based
[2] = system: p53 signaling (p53RE-bla HCT-116 cells)
[3] = system: p53 signaling (p53RE-bla HCT-116 cells); remark: listed apart in the source
[4] = Homo sapiens, HCT-116, read-out: p53 activation EC50, cherry pick confirmation
[5] = Homo sapiens, HCT-116, read-out: p53 activation EC50, primary screening
[6] = Homo sapiens, HCT-116, read-out: p53 activation efficacy, cherry pick confirmation
[7] = Homo sapiens, HCT-116, read-out: p53 activation efficacy, primary screening
[8] = read-out: p53 activation EC50, cherry pick confirmation
[9] = read-out: p53 activation EC50, primary screening

| Compound | EC50 [1, 4] [µM] | EC50 [1, 5] [µM] | Emax [1, 6] [%] | Emax [1, 7] [%] | p53 activation EC50, cherry pick confirmation [2] | p53 activation EC50, primary screening [2] | p53 activation efficacy, cherry pick confirmation [2] | p53 activation efficacy, primary screening [2] | Viability EC50, cherry pick confirmation (p53RE-bla HCT-116 cells) | Viability EC50, primary screening (p53RE-bla HCT-116 cells) | Viability efficacy, primary screening (p53RE-bla HCT-116 cells) | p53 activation EC50, cherry pick confirmation [3] | p53 activation EC50, primary screening [3] | p53 activation efficacy, cherry pick confirmation [3] | p53 activation efficacy, primary screening [3] | Viability efficacy, cherry pick confirmation (p53RE-bla HCT-116 cells) | p53 activation efficacy, primary screening [1] | other results |
| --- | --- | --- | --- | --- | --- | --- | --- | --- | --- | --- | --- | --- | --- | --- | --- | --- | --- | --- |
| COc1cccc2c1C(=O)c1c(O)c3c(c(O)c1C2=O)C[C@@](O)(C(=O)CO)C[C@@H]3O[C@H]1C[C@H](N)[C@H](O[C@@H]2CCCCO2)[C@H](C)O1 [Pirarubicin] | 7.61 | 2.19 | 287 | 142 | inactive | inactive | inactive | inactive | inactive | inactive | inactive | inactive | inactive | inactive | inactive | – | – | – |
| O=C(N/N=C/c1ccc([N+](=O)[O-])o1)c1ccc(O)cc1 [Nifuroxazide] | 10.2 | 19.6 | 47.4 | 39.6 | inactive | inactive | inactive | inactive | inactive | inactive | inactive | inactive | inactive | inactive | inactive | inactive | – | – |
| CCCCNC(=O)OCC#CI [3-Iodo-2-propynyl-N-butylcarbamate] | – | – | – | – | inactive | inactive | inactive | inactive | inactive | inactive | inactive | inactive | inactive | inactive | inactive | inactive | 78.699 | p53 activation efficacy, cherry pick confirmation [1]: 104.439; EC50 [1, 8]: 34.4 µM; EC50 [1, 9]: 47.6 µM |
| Oc1ccc(Oc2ccccc2)cc1 [4-Phenoxyphenol] | – | – | – | – | – | – | – | – | – | – | – | – | – | – | – | – | – | EC50, p53 activation, cherry pick confirmation [1]: inactive; Efficacy, p53 activation, cherry pick confirmation [1]: inactive; EC50 ([1]; Homo sapiens, HCT-116, read-out: EC50, p53 activation, primary screening): 25.6 µM; Emax ([1]; Homo sapiens, HCT-116, read-out: Efficacy, p53 activation, primary screening): 32.4%; EC50, p53 activation, cherry pick confirmation [2]: inactive; EC50, p53 activation, primary screening [2]: inactive; Efficacy, p53 activation, cherry pick confirmation [2]: inactive; Efficacy, p53 activation, primary screening [2]: inactive; EC50, viability, cherry pick confirmation (p53RE-bla HCT-116 cells): inactive; EC50, viability, primary screening (p53RE-bla HCT-116 cells): inactive; Efficacy, viability, cherry pick confirmation (p53RE-bla HCT-116 cells): inactive; Efficacy, viability, primary screening (p53RE-bla HCT-116 cells): inactive; EC50, p53 activation, cherry pick confirmation [3]: inactive; EC50, p53 activation, primary screening [3]: inactive; Efficacy, p53 activation, cherry pick confirmation [3]: inactive; Efficacy, p53 activation, primary screening [3]: inactive |
| CNC(=O)Oc1ccccc1OC(C)C [Propoxur] | – | – | – | – | – | – | – | – | – | – | – | – | – | – | – | – | – | p53 activation EC50 [1]: inactive; p53 activation efficacy [1]: inactive; p53 activation EC50 [2]: inactive; Viability EC50 (p53RE-bla HCT-116 cells): inactive; Viability efficacy (p53RE-bla HCT-116 cells): inactive; p53 activation EC50 [3]: inactive |
| Nc1ncn([C@@H]2O[C@H](CO)[C@@H](O)[C@H]2O)c(=O)n1 [5-Azacytidine] | – | – | – | – | inactive | inactive | inactive | inactive | inactive | inactive | inactive | inactive | inactive | inactive | inactive | inactive | 59.244 | p53 activation efficacy, cherry pick confirmation [1]: 71.649; EC50 [1, 8]: 17.7 µM; EC50 [1, 9]: 11.2 µM |
| O=C(c1ccccc1)c1ccccc1 [Benzophenone] | – | – | – | – | inactive | – | inactive | – | inactive | inactive | inactive | inactive | – | inactive | – | inactive | inactive | p53 activation EC50, cherry pick confirmation [1]: inactive; p53 activation EC50, primary screening [1]: inactive; p53 activation efficacy, cherry pick confirmation [1]: inactive |
| COP(=S)(OC)Oc1ccc([N+](=O)[O-])cc1 [Methyl parathion] | – | – | – | – | – | – | – | – | – | – | – | – | – | – | – | – | – | p53 activation EC50 [1]: inactive; p53 activation efficacy [1]: inactive; EC50 [2]: 9.83 µM; p53 activation efficacy [2]: 52.7126 and 58.5263; Viability EC50 (p53RE-bla HCT-116 cells): inactive; Viability efficacy (p53RE-bla HCT-116 cells): inactive; p53 activation EC50 [3]: inactive; EC50 ([3]; read-out: p53 activation EC50): 7.98 µM |
| Demeton | – | – | – | – | – | – | – | – | inactive | inactive | inactive | inactive | – | – | – | inactive | inactive | p53 activation EC50, cherry pick confirmation [1]: inactive; p53 activation EC50, primary screening [1]: inactive; p53 activation efficacy, cherry pick confirmation [1]: inactive; EC50 [2]: 1.91 µM; EC50 [2, 8]: 1.7 µM |
| CCC(C)(NC(=O)c1cc(Cl)c(C)c(Cl)c1)C(=O)CCl (centres unmarked) [Zoxamide] | 22.3 | 38 | 94.8 | 50.7 | inactive | inactive | inactive | inactive | inactive | inactive | inactive | inactive | inactive | inactive | inactive | inactive | – | – |
| COc1c(C)c2c(c(O)c1C/C=C(\C)CCC(=O)O)C(=O)OC2 [Mycophenolic acid] | 0.172 | 0.174 | 58.4 | 42.7 | inactive | inactive | inactive | inactive | inactive | inactive | inactive | inactive | inactive | inactive | inactive | inactive | – | – |
| CNC(=O)c1ccccc1Sc1ccc2c(/C=C/c3ccccn3)n[nH]c2c1 [Axitinib] | – | 1.41 | 56 | 83.4 | inactive | inactive | inactive | inactive | inactive | inactive | inactive | inactive | inactive | inactive | inactive | inactive | – | – |
| Potassium dichromate | – | – | – | – | inactive | inactive | inactive | inactive | inactive | inactive | – | inactive | inactive | inactive | inactive | – | 47.8443 | EC50 [1, 8]: 14.9 µM; EC50 [1, 9]: 8.27 µM; EC50 (p53RE-bla HCT-116 cells; read-out: Viability EC50, cherry pick confirmation): 34.6 µM and 20.2 µM; EC50 (p53RE-bla HCT-116 cells; read-out: Viability EC50, primary screening): 21.3 µM and 31 µM |
| O=C(Nc1cccc(Cl)c1)OCC#CCCl [Barban] | 32.3 | 19 | 46.3 | 37.2 | inactive | inactive | inactive | inactive | inactive | inactive | inactive | inactive | inactive | inactive | inactive | inactive | – | – |
